Entries after “also recorded” stand apart in the source; their conditions may differ.
What was measured:
[1] = Sensitivity of mammalian cells to the inactivators alone: XP cells; format: cell-based, human; settings: human, xp cells; FIG. 6; read-out: dose required for growth inhibition relative to that required for ATase inactivation
Method: (§1) In order to assess the effects on cell growth alone, Xeroderma pigmentosum cells and Chinese Hamster V79 cells were exposed to increasing concentrations (up to 600 μM) of selected inactivators for 2 h at 37°. In some cases, the inactivators were allowed to undergo hydrolysis at 37° C. for 20 hours and then added to Raji cells in order to assess the extent to which the decomposition products of the agents might inhibit cell growth. After 6 days the extent of cell growth was determined as described above.

[2] = tested on: Xeroderma pigmentosum cells; test: as above; format: cell-based, human; settings: inactivator alone (FIG. 6)
Method: as §1

[3] = tested on: human bone marrow granulocyte macrophage colony forming cells; test: Sensitization of bone marrow cells to temozolomide (GM-CFC assay); format: cell-based; settings: for sensitization of human bone marrow cells to temozolomide, in words: 10 μM inactivator
From the text: (§2) For the granulocyte/macrophage colony-forming cell (GM-CFC) assay primary human bone marrow samples were obtained from patients undergoing cardiothoracic surgery. […] The colonies represented precursor cells of the granulocyte/macrophage lineage (huGM-CFC). Survival was expressed as a % of the number of colonies at zero dose temozolomide.

Raji cells [4] = test: Sensitization of Raji cells to temozolomide (XTT assay); format: cell-based, human
Method: (§3) Following a 2 hour incubation at 37° C., medium containing either increasing doses of BCNU, temozolomide or equivalent vehicle was added and the cells allowed to grow for 6 days. At this time XTT solution was added and the cells incubated for a further 4 hours at 37° C. The resulting red/orange formazan reaction product was quantified by measuring absorption at 450 nm on a microtitre platereader.

bone marrow cells = test: Inactivator toxicity in bone marrow cells (GM-CFC colonies, inactivator alone); format: cell-based, human; settings: 10 μM, 5 patients (Table 7)
From the text: as §2

A375 tumour xenografts = test: Xenograft study: sensitization of A375 tumour xenografts to BCNU; format: in vivo, nude mice; settings: inactivator 30 or 60 mg/kg + BCNU 10-25 mg/kg i.p. (FIGS. 9-13)
Method: OX6 OPT, England (OLAC mice). […] For this reason lower doses were administered. Cells (10^6) in 100 μl of PBS were injected subcutaneously into the right-hand flank of 8-10 week old nu/nu athymic mice. […] The experimental animals were also weighed every 1-2 days. Measurements continued until tumours in the control animals reached the maximum allowable volume (i.e. 1 cm×1 cm×1 cm).

[5] = tested on: Chinese Hamster V79 cells; test: Sensitivity of mammalian cells to the inactivators alone: V79 cells; format: cell-based; settings: inactivator alone, up to 600 μM
Method: as §1

nude mice [6] = test: Xenograft study: survival of nude mice given inactivator plus BCNU; settings: FIGS. 9-13
From the text: BALB-C derived athymic male mice (nu/nu athymic) weighing between 25-35 g were obtained from the in-house breeding colony of the Paterson Institute for Cancer Research, Christie Hospital NHS Trust, Wilmslow Road, Manchester M20 9BX, England (ASU mice). The animals were housed in a sterile environment until required for experiments. In one experiment mice were obtained from Harlan-Olac, Harlan UK Limited, Shaw's Farm, Blackthorn, Bicester, Oxon. OX6 OPT, England (OLAC mice).

Raji cells [7] = test: Sensitization of Raji cells to BCNU (XTT assay); format: cell-based, human
Method: as §3

ATase = ATase activity in tissues of nude mice after inactivator; format: in vivo, mouse; settings: 10 mg/kg i.p., 24 and 48 hours (Table 10)
Method: ATase substrate DNA was prepared by incubation of purified calf thymes DNA with N-[^3 H]-methyl-N-nitrosuourea (18.7 Ci/mmole, Amersham International). Cell or tissue extracts (see 4.4) were incubated with [^3 H]-methylated-DNA substrate (100 μl containing 6.7 μg of DNA and 100 fmol of O^6 -[^3 H]methylguanine) at 37° C. for 60 mins. Following acid hydrolysis of the DNA as precviously described^21the [^3 H]-methylated protein was recovered and quantitated by liquid scintillation counting. […]
The mice in the tests shown in FIGS. 17 and 18 were BALB-C derived athymic male mice (nu/nu athymic) from the in-house breeding colony at the Paterson Institute for Cancer Research as described above (Animal Services Unit-ASU Mice).
Animals were given a single dose of B.4280 (10 mg/kg i.p.) and sacrificed

nude mice [8] = test: Survival of xenograft-bearing nude mice given inactivator plus temozolomide; format: in vivo, mouse
Method: Mice were treated with the inactivator as a suspension in corn oil by intraperitoneal injection (i.p.) or by oral gavage (p.o.) 60 mins prior to temozolomide (100 mg/kg in 20% DMSO in phosphate-buffered saline) which was always given by intraperitoneal injection: this schedule was repeated on days 1 to 5 inclusive. Controls received vehicle alone, inactivator alone or temozolomide alone.
The mice in the tests shown in FIGS. 19-24 were Swiss mouse derived athymic male mice ([…]) from ZENECA Pharmaceuticals, Mereside, Alderley Park, Macclesfield, Cheshire SK10 4T6, England.

DBA2 mice = test: Toxicity of inactivators in combination with BCNU in DBA2 mice; format: in vivo, mouse; settings: Table 11
From the text: All agents were given as a single i.p. dose

Structure (SMILES) | selectivity ratio [1] | growth inhibition / toxicity to XP cells, in words [2] | sensitization of human bone marrow cells to temozolomide, in words ([3]; patient D (FIG. 14)) | sensitization of human bone marrow cells to temozolomide, in words ([3]; patients C & E (FIG. 14)) | sensitization of GM-CFC to cytotoxic effects of temozolomide, in words ([3]; four different patient samples, 10 μM (FIG. 23)) | sensitization of GM-CFCs to toxic effects of temozolomide, in words ([3]; three human bone marrow samples (FIG. 14)) | sensitising Raji cells to growth inhibitory effects of temozolomide, in words (Raji cells [4]; 0.1 μM inactivator (FIG. 3)) | dose response of Raji sensitization to temozolomide, in words (Raji cells [4]; 0.1-5.0 μM inactivator (FIGS. 3, 4)) | toxic effect of inactivator alone on bone marrow cells, in words (bone marrow cells) | sensitization of A375 xenografts to BCNU (tumour volume), in words (A375 tumour xenografts) | growth inhibition / toxicity to V79 cells, in words [5] | toxicity in combination with BCNU in nude mice, in words (nude mice [6]) | sensitizing Raji cells to growth inhibitory effects of BCNU, in words (Raji cells [7]; 0.1 μM inactivator (FIG. 2)) | sensitizing Raji cells to growth inhibitory effects of BCNU, in words (Raji cells [7]; 1.0 μM inactivator (FIG. 2)) | recovery of ATase activity in tissues, in words (ATase) | sensitization of Raji cells to temozolomide, in words (Raji cells [4]; 0.5 μM inactivator, 2 hours before temozolomide (FIG. 16)) | toxicity of oral combination versus i.p. route, in words (nude mice [8]; with temozolomide (FIG. 24B)) | toxicity at equi-effective doses for tumour growth inhibition, in words (nude mice [8]; with temozolomide (FIGS. 21B, 22B)) | acute toxicity in combination with BCNU in DBA2 mice, in words (DBA2 mice)
Nc1nc(OCc2cccs2)c2nc[nH]c2n1 [B.4205, 0^6 -thenylguanine] | ≥ 100 | more sensitive than V79 cells; also recorded: toxic | no differential | smaller sensitization effect than O^6 -benzylguanine | only occurred in one patient | little or no sensitization | more effective than BeG | lack of dose response | comparable to those for O^6 -benzylguanine | comparable to O^6 -benzylguanine (BeG) in reducing tumour volume | no such effects were seen | substantially less toxic in combination with BCNU than BeG in combination with BCNU; also recorded: very little effect | more effective than BeG | equally effective |  |  |  |  | 
Nc1nc(OCc2cc(Br)cs2)c2nc[nH]c2n1 [B.4280, O^6-(4-bromothenyl)guanine] |  |  |  |  |  |  |  |  |  |  |  |  |  |  | activity in brain, testis and bone marrow was near to control levels by 24 hours whereas lung and spleen activity had not completely recovered by 48 hours | much more effective than either B.4205 or BeG | marginally less toxic than the i.p. route | less toxic than B.4205 | considerably less acutely toxic than B.4205 or BeG
